Experimental data published in patent publication US11959929B2, “Method of quantifying lysergic acid diethylamide (LSD) and 2,3-dihydro-3-hydroxy-2-oxo lysergide (O-H-LSD) in human plasma” (Universitatsspital Basel, priority 2020, dated 2024).
“And” between values parts separate entries of the source, which are not always exact repeats. Equal values may be shown once.

Test: Bench-top (short-term) stability test in human plasma, 8 hours at ambient temperature
Format: physicochemical
Conditions: for Change in concentration [%]: 8 h at RT vs Baseline; for Accuracy: single QC replicate; for Change in plasma concentration after 8 hours storage at room temperature: human plasma QC samples, 8 hours at room temperature, vs freshly processed QC
Excerpt: Each analyte had to be stable in human plasma for at least three freeze-thaw cycles (for repeated sample preparations) and at ambient temperature for at least eight hours (maximal duration of sample preparation). Measured samples should be stable for a second injection when the first analytical run was not valid. The analytes had to be stable in the matrix at the intended storage temperatures and study duration.
An analyte was considered stable at one of the above tests when no increase or decrease of the analyte concentration of more than 15% for the mean of at least three analyzed QC samples at low, medium and at high concentration was observed.
Seven of each LLOQ, QCLOW, QCMID, QCHIGH, and ULOQ samples in human plasma were thawed at ambient temperature and kept at this temperature for 8 hours. Afterwards, the samples were worked up and analyzed. The values of the concentrations in the “short-term” samples were compared with freshly processed QC samples. Concentrations were calculated based on two freshly prepared CAL sets measured at the beginning and the end of the validation run.

| SMILES | Accuracy, Intra-assay Mean (LLOQ: 10 pg/ml, 8 h at RT) | Change in concentration [%] (LLOQ: 10 pg/ml) | Accuracy (LLOQ: 10 pg/ml, 8 h at RT) | Accuracy, Intra-assay Mean (LLOQ: 10 pg/ml, Baseline) | Accuracy (LLOQ: 10 pg/ml, Baseline) | Accuracy, Intra-assay Mean (QCHIGH: 1000 pg/ml, 8 h at RT) | Change in concentration [%] (QCHIGH: 1000 pg/ml) | Accuracy (QCHIGH: 1000 pg/ml, 8 h at RT) | Accuracy, Intra-assay Mean (QCHIGH: 1000 pg/ml, Baseline) | Accuracy (QCHIGH: 1000 pg/ml, Baseline) | Accuracy, Intra-assay Mean (QCLOW: 25 pg/ml, 8 h at RT) | Change in concentration [%] (QCLOW: 25 pg/ml) | Accuracy (QCLOW: 25 pg/ml, 8 h at RT) | Accuracy, Intra-assay Mean (QCLOW: 25 pg/ml, Baseline) | Accuracy (QCLOW: 25 pg/ml, Baseline) | Accuracy, Intra-assay Mean (QCMID: 100 pg/ml, 8 h at RT) | Change in concentration [%] (QCMID: 100 pg/ml) | Accuracy (QCMID: 100 pg/ml, 8 h at RT) | Accuracy, Intra-assay Mean (QCMID: 100 pg/ml, Baseline) | Accuracy (QCMID: 100 pg/ml, Baseline) | further results |
| --- | --- | --- | --- | --- | --- | --- | --- | --- | --- | --- | --- | --- | --- | --- | --- | --- | --- | --- | --- | --- | --- |
| CCN(CC)C(=O)[C@@H]1C=C2c3cccc4[nH]cc(c34)C[C@H]2N(C)C1 [LSD, Lysergic acid diethylamide] | 88.3% | 3.81% | 91.6% and 85.6% and 74.7* % and 83.10% and 92% and 86.1% and 91.7% | 91.8% | 96.6% and 95.7% and 83.2% | 97.8% | 1.99% | 98.2% and 98.3% and 97.2% and 96.8% and 96.2% and 97.7% and 100% | 95.9% | 96.9% and 96.4% and 94.3% | 92.7% | 0.0885% | 96% and 92.9% and 94.5% and 87.6% and 94.4% and 93.3% and 90% | 92.6% | 94% and 93.4% and 90.5% | 96% | −1.51% | 95.9% (2×) and 95.8% and 94.2% and 91.1% and 99.2% and 99.7% | 97.5% | 101% and 94.3% and 97.4% | Accuracy, Intra-assay Mean (ULOQ: 10000 pg/ml, 8 h at RT): 94.9%; Change in concentration [%] (ULOQ: 10000 pg/ml): −1.74%; Accuracy (ULOQ: 10000 pg/ml, 8 h at RT): 94.7% and 93.4% and 94.6% and 96.9% and 95.4% and 95% and 94.3%; Accuracy, Intra-assay Mean (ULOQ: 10000 pg/ml, Baseline): 96.6%; Accuracy (ULOQ: 10000 pg/ml, Baseline): 94.7% and 94.9% and 100%; Change in plasma concentration after 8 hours storage at room temperature: ≤ 3.81% |
| CCN(CC)C(=O)C1C=C2c3cccc4c3C(O)(C[C@H]2N(C)C1)C(=O)N4 (some centres unmarked) [O-H-LSD, 2,3-dihydro-3-hydroxy-2-oxo lysergide] | 91.2% | 0.176% | 90.4% and 94.3% and 63.8* % and 77.5* % and 83.1% and 101% and 87.9% | 91.1% | 95% and 88.9% and 89.4% | 95.1% | −1.51% | 96% and 100% and 91.8% and 94.6% and 93.6% and 95.8% and 93.9% | 96.6% | 97.7% and 96.2% and 95.9% | 96.4% | 1.1% | 89.2% and 93.3% and 97.6% and 102% and 103% and 97.1% and 91.9% | 95.3% | 94.7% and 91.5% and 99.8% | 95.8% | 0.652% | 97.1% and 91.5% and 95.2% and 98.3% and 94.6% and 99.6% and 94.5% | 95.2% | 95.7% and 98.6% and 91.4% | Found at, Intra-assay Mean (LLOQ: 10 pg/ml, 8 h at RT): 9.13 pg/mL; Found at, Intra-assay Mean (LLOQ: 10 pg/ml, Baseline): 9.11 pg/mL; Found at, Intra-assay Mean (QCHIGH: 1000 pg/ml, 8 h at RT): 951 pg/mL; Found at, Intra-assay Mean (QCHIGH: 1000 pg/ml, Baseline): 966 pg/mL; Found at, Intra-assay Mean (QCLOW: 25 pg/ml, 8 h at RT): 24.1 pg/mL; Found at, Intra-assay Mean (QCLOW: 25 pg/ml, Baseline): 23.8 pg/mL; Found at, Intra-assay Mean (QCMID: 100 pg/ml, 8 h at RT): 95.8 pg/mL; Found at, Intra-assay Mean (QCMID: 100 pg/ml, Baseline): 95.2 pg/mL; Accuracy, Intra-assay Mean (ULOQ: 10000 pg/ml, 8 h at RT): 91.1%; Found at, Intra-assay Mean (ULOQ: 10000 pg/ml, 8 h at RT): 9110 pg/mL; Change in concentration [%] (ULOQ: 10000 pg/ml): −4.52%; Accuracy (ULOQ: 10000 pg/ml, 8 h at RT): 90.2% and 93% and 90.7% and 88.2% and 93.2% and 91.5% and 91.1%; Accuracy, Intra-assay Mean (ULOQ: 10000 pg/ml, Baseline): 95.4%; Found at, Intra-assay Mean (ULOQ: 10000 pg/ml, Baseline): 9540 pg/mL; Accuracy (ULOQ: 10000 pg/ml, Baseline): 94.2% and 92.3% and 99.7%; Change in plasma concentration after 8 hours storage at room temperature: ≤ 4.52% |
